The target in experiment [1] is T1, 5-hydroxytryptamine receptor 2C (Homo sapiens, UniProt P28335).
T1 sequence (P28335 whole entry): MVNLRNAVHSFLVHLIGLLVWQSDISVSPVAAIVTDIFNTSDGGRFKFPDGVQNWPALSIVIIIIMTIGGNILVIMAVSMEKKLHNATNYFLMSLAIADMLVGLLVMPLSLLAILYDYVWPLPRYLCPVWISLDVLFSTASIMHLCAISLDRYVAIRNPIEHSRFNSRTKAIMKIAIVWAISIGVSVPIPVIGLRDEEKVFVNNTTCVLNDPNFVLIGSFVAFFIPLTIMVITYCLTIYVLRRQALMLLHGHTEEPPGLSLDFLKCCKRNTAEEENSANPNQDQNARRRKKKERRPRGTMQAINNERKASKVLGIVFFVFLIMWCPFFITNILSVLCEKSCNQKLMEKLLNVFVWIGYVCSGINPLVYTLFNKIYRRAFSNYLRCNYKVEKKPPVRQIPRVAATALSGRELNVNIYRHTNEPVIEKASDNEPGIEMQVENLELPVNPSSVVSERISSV

Experiment [2] has as its target 5-hydroxytryptamine receptor 1D (Homo sapiens, UniProt P28221).
The target in experiment [3] is 5-hydroxytryptamine receptor 2B (Homo sapiens, UniProt P41595).
Chain of 5-hydroxytryptamine receptor 2B (P41595 whole entry): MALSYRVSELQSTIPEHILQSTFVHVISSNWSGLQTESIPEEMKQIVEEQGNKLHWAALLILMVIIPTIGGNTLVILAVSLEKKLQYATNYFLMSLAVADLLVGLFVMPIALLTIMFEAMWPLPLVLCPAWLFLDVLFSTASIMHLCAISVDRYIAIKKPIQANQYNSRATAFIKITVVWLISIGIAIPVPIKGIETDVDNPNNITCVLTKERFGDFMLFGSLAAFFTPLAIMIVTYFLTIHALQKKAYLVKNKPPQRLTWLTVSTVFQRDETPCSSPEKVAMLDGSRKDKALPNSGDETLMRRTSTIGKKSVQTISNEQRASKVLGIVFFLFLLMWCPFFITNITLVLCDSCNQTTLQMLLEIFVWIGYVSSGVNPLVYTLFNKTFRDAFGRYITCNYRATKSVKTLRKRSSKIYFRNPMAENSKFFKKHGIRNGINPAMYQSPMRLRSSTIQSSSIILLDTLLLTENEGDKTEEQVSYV
Experiment [4] addresses 5-hydroxytryptamine receptor 2A (Homo sapiens, UniProt P28223).
Experiment [5] has as its target 5-hydroxytryptamine receptor 1B (Homo sapiens, UniProt P28222).
The target in experiment [6] is T2, 5-hydroxytryptamine receptor 3A (Homo sapiens, UniProt P46098).
T2 sequence (P46098 whole entry): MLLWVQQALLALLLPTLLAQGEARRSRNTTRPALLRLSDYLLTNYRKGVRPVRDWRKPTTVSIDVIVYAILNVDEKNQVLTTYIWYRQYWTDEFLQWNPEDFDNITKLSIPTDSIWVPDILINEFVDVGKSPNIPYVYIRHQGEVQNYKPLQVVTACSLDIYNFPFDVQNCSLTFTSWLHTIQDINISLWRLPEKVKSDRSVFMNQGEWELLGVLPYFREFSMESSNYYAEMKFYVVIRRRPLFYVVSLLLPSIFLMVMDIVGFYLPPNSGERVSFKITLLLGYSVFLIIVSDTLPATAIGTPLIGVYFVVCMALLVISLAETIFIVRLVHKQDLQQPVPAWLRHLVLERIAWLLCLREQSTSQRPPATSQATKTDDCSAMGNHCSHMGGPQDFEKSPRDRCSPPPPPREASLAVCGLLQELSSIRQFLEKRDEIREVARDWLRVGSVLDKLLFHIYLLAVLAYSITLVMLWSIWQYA

Experiment [7] addresses T3, 5-hydroxytryptamine receptor 1A (Homo sapiens, UniProt P08908).
T3 sequence (P08908 whole entry): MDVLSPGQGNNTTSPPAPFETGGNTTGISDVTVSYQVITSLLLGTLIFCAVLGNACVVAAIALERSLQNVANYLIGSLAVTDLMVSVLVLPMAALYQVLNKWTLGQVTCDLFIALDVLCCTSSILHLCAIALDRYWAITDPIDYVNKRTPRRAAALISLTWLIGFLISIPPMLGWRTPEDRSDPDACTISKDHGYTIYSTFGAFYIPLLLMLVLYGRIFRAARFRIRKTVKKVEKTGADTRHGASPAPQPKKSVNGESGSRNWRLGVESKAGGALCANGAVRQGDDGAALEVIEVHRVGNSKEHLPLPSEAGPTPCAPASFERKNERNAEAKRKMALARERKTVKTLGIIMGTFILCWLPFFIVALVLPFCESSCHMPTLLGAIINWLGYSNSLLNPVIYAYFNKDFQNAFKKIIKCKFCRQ

Experiment [8] addresses 5-hydroxytryptamine receptor 4 (Homo sapiens, UniProt Q13639).
Experiment [9] addresses 5-hydroxytryptamine receptor 7 (Homo sapiens, UniProt P34969).
Experiment [10] deals with 5-hydroxytryptamine receptor 6 (Homo sapiens, UniProt P50406).
Chain of 5-hydroxytryptamine receptor 6 (P50406 whole entry): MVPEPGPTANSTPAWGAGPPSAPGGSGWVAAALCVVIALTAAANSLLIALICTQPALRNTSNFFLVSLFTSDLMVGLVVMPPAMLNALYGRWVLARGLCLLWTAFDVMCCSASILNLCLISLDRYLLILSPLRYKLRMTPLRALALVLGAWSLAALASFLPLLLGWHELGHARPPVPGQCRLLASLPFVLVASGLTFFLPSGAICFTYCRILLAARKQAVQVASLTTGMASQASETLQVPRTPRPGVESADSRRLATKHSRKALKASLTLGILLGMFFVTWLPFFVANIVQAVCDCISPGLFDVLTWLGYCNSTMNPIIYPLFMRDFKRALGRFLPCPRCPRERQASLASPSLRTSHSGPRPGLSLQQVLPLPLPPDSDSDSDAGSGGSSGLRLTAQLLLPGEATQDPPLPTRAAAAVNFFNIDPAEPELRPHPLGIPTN
Experiment [11] deals with 5-hydroxytryptamine receptor 5A (Homo sapiens, UniProt P47898).
Chain of 5-hydroxytryptamine receptor 5A (P47898 whole entry): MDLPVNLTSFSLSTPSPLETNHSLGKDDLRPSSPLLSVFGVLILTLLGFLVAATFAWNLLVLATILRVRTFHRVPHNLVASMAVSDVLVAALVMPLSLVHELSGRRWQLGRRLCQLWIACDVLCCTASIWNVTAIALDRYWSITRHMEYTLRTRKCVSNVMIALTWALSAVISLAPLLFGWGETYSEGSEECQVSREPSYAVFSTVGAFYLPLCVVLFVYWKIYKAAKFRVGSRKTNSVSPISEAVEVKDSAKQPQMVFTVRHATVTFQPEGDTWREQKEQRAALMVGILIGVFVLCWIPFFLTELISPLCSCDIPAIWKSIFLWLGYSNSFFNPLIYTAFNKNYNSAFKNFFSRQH

Chain of 5-hydroxytryptamine receptor 1D (P28221 whole entry): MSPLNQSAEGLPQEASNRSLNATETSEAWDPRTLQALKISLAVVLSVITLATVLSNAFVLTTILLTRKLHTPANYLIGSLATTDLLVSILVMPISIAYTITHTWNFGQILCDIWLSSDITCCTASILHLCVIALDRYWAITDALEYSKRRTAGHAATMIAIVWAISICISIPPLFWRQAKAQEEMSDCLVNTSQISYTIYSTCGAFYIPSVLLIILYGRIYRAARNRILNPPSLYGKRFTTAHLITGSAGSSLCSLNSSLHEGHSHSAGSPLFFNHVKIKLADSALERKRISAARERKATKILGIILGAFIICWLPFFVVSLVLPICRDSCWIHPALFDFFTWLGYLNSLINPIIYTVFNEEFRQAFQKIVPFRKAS
Chain of 5-hydroxytryptamine receptor 7 (P34969 whole entry): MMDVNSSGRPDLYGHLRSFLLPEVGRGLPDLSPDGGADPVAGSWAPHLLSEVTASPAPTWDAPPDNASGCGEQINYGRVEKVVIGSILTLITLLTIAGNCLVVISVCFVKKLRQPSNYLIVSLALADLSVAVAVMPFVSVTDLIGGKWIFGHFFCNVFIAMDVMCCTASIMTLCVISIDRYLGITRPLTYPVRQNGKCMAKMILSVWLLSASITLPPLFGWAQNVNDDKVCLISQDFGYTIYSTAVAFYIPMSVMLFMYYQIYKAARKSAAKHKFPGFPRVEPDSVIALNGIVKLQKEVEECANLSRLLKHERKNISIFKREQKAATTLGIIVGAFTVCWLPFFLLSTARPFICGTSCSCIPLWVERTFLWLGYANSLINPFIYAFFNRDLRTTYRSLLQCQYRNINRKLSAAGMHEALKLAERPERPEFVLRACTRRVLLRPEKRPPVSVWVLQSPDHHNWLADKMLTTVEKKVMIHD
Chain of 5-hydroxytryptamine receptor 1B (P28222 whole entry): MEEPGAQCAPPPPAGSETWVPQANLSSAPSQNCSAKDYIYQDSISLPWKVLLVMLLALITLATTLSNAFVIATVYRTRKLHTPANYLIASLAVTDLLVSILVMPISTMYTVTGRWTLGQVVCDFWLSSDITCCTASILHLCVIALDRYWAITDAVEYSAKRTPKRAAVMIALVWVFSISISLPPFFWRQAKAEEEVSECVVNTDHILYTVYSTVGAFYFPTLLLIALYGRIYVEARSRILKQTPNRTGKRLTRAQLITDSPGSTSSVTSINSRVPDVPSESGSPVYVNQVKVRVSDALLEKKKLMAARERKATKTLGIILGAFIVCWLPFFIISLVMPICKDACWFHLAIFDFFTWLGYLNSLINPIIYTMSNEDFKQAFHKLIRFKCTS
Chain of 5-hydroxytryptamine receptor 2A (P28223 whole entry): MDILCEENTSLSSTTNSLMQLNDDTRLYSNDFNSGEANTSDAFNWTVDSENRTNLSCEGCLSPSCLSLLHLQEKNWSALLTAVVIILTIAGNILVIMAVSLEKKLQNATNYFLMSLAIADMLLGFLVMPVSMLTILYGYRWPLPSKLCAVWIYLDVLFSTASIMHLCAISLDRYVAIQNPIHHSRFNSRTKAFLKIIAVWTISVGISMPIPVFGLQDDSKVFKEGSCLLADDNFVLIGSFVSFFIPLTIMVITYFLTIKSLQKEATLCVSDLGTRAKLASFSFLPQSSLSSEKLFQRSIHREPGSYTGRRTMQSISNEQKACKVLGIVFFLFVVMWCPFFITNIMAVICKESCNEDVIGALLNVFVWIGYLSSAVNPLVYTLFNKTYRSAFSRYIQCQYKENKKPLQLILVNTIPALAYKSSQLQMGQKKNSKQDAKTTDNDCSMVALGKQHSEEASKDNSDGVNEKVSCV
Chain of 5-hydroxytryptamine receptor 4 (Q13639 whole entry): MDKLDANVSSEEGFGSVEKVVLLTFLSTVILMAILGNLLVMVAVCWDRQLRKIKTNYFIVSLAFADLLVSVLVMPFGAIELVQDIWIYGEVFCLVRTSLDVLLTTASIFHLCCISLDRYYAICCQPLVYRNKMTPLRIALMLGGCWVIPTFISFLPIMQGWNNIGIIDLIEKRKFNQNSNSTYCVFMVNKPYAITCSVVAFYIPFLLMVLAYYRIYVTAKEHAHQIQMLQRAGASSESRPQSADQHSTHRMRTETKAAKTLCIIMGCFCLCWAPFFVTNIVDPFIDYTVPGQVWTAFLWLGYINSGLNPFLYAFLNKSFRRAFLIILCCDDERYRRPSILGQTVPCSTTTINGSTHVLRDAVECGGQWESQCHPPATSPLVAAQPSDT

What is called Ki is the equilibrium dissociation constant of an inhibitor or competing ligand from its target. For `Nc1c(Cl)cc(-c2nn(C3CCN(CCc4ccccc4)CC3)c(=O)o2)c2c1OCCO2` [SL65.0155], the Ki in experiment [1] was 4.78 µM; in [2], 7.99 µM; in [3], 1.56 µM; in [4], 1.32 µM; in [5], 5.5 µM; in experiment [6] it was more than 10 µM. Also, the Ki is 1.02 µM in [7]; 0.0006 µM in [8]; 3.26 µM in experiment [9]; 2.58 µM in experiment [10]; more than 10 µM in experiment [11].
